The values that follow come from the supplement of paper PMC11962398.

Compound in assay [1]: T1, C[C@H]1CNCCN1c1nccc(-c2noc3c2CCC[C@@]32CCCc3sc(N)c(C#N)c32)n1 [BI-2493]
The following applies: 5 days. The procedure: (§1)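 PRISM pooled barcoded cancer cell line viability screen (Broad Institute) with BI-2493 at 8 doses in threefold dilutions from 0.00457 to 10 µmol/L, 5-day treatment; curves fitted per cell line. IC50 is undefined (placeholder) for resistant lines. AUC is capped at 1, and sensitivity is reported as 1 − AUC.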

Compound in assay [2]: T1, BI-2493
Nature of the assay: 1 - AUC of viability dose-response curve (sensitivity) (fraction); higher = more sensitive. The following applies: 5 days. The procedure:
as §1

Turning to UMUC7_URINARY_TRACT, in the assay with BI-2493 [1], the “IC50 of cell viability” value is greater than 10 µM. The “1 - AUC of viability dose-response curve” value with BI-2493 [2] came out at 0.14.
UMUC10_URINARY_TRACT: the “IC50 of cell viability” value with BI-2493 [1] was 9.49 µM. Besides, the “1 - AUC of viability dose-response curve” value with BI-2493 [2] came to 0.0119.
Consider UMUC11_URINARY_TRACT, for which the “IC50 of cell viability” value in the assay with BI-2493 [1] came out at 6.87 µM. In addition, in the assay with BI-2493 [2], the “1 - AUC of viability dose-response curve” value was found to be 0.101.
For UO31_KIDNEY, the “IC50 of cell viability” value with BI-2493 [1] stood at 9.54 µM. In addition, the “1 - AUC of viability dose-response curve” value with BI-2493 [2] amounted to 0.0602.
As to UPCISCC072_UPPER_AERODIGESTIVE_TRACT, in the assay with BI-2493 [1], the “IC50 of cell viability” value was found to be 8.57 µM. Moreover, in the assay with BI-2493 [2], the “1 - AUC of viability dose-response curve” value is 0.0294.
In the same order, the values of UPCISCC111_UPPER_AERODIGESTIVE_TRACT are 4.12 µM and 0.158.
For UPCISCC116_UPPER_AERODIGESTIVE_TRACT the same measures were 5.74 µM and 0.118.
Consider UW228_CENTRAL_NERVOUS_SYSTEM, for which the “IC50 of cell viability” value with BI-2493 [1] was determined as 4.79 µM. In addition, the “1 - AUC of viability dose-response curve” value with BI-2493 [2] is 0.0946.
In the same order, the values of VAESBJ_SOFT_TISSUE are 9.61 µM and 0.00971.
Regarding VAL_HAEMATOPOIETIC_AND_LYMPHOID_TISSUE, in the assay with BI-2493 [1], the “IC50 of cell viability” value amounted to 3.46 µM. The “1 - AUC of viability dose-response curve” value with BI-2493 [2] stood at 0.136.
In the same order, the values of VMCUB1_URINARY_TRACT are 3.76 µM and 0.15.
In the case of VMRCRCW_KIDNEY, the “IC50 of cell viability” value with BI-2493 [1] was 5.59 µM. Moreover, the “1 - AUC of viability dose-response curve” value with BI-2493 [2] worked out at 0.0854.
For VMRCRCZ_KIDNEY, the “IC50 of cell viability” value with BI-2493 [1] turned out to be 6.92 µM. The “1 - AUC of viability dose-response curve” value in the assay with BI-2493 [2] was determined as 0.0774.
Turning to “WAOSEL_HAEMATOPOIETIC_AND_LYMPHOID_TISSUE”, the “IC50 of cell viability” value with BI-2493 [1] worked out at 9.74 µM. Further, the “1 - AUC of viability dose-response curve” value with BI-2493 [2] stood at 0.00836.
For WERIRB1_AUTONOMIC_GANGLIA the same measures were 9.33 µM and 0.052.
WM88_SKIN: in the assay with BI-2493 [1], the “IC50 of cell viability” value was determined as 8.79 µM. For the same test system, in the assay with BI-2493 [2], the “1 - AUC of viability dose-response curve” value came to 0.0214.
In the case of WM793_SKIN, the “IC50 of cell viability” value with BI-2493 [1] stood at 5.47 µM. Moreover, the “1 - AUC of viability dose-response curve” value in the assay with BI-2493 [2] was 0.0739.
As for WM983B_SKIN, in the assay with BI-2493 [1], the “IC50 of cell viability” value is 7.98 µM. Besides, the “1 - AUC of viability dose-response curve” value with BI-2493 [2] was determined as 0.038.
In the same order, the values of WM2664_SKIN are 9.22 µM and 0.0151.
For “WSUDLCL2_HAEMATOPOIETIC_AND_LYMPHOID_TISSUE”, the “IC50 of cell viability” value with BI-2493 [1] stood at 4.99 µM. Besides, the “1 - AUC of viability dose-response curve” value with BI-2493 [2] is 0.156.
Consider YAPC_PANCREAS, for which the “IC50 of cell viability” value in the assay with BI-2493 [1] amounted to 2.97 µM. For the same test system, in the assay with BI-2493 [2], the “1 - AUC of viability dose-response curve” value was 0.287.
For YD8_UPPER_AERODIGESTIVE_TRACT the same measures were greater than 10 µM and 0.0906.
For YD10B_UPPER_AERODIGESTIVE_TRACT the same measures were 5.08 µM and 0.0787.
For YD15_SALIVARY_GLAND the same measures were 6.99 µM and 0.0555.
YD38_UPPER_AERODIGESTIVE_TRACT: the “IC50 of cell viability” value in the assay with BI-2493 [1] was found to be 6.6 µM. In addition, in the assay with BI-2493 [2], the “1 - AUC of viability dose-response curve” value was found to be 0.088.
YH13_CENTRAL_NERVOUS_SYSTEM: the “IC50 of cell viability” value with BI-2493 [1] is greater than 10 µM. The “1 - AUC of viability dose-response curve” value with BI-2493 [2] was determined as 0.0914.
In the same order, the values of YKG1_CENTRAL_NERVOUS_SYSTEM are 9.17 µM and 0.0786.
Consider YSCCC_BILIARY_TRACT, for which, in the assay with BI-2493 [1], the “IC50 of cell viability” value is 5.65 µM. For the same test system, the “1 - AUC of viability dose-response curve” value with BI-2493 [2] is 0.104.
In the same order, the values of ZR751_BREAST are 4.57 µM and 0.1.
